Test results from ChEMBL document CHEMBL1144754, “Formation of fluorine-18 labeled diaryl ureas--labeled VEGFR-2/PDGFR dual inhibitors as molecular imaging agents for angiogenesis” (Bioorg Med Chem, 2008).
pIC50: −log10 of the molar value.

Experiments:
[1] = target: Receptor tyrosine-protein kinase erbB-2 (Homo sapiens, UniProt P04626); assay: Inhibition of Her2 expressed in CSH12 cells by Western blot analysis; format: cell-based
[2] = target: Epidermal growth factor receptor (Homo sapiens, UniProt P00533); assay: Inhibition of EGFR expressed in DHER14 cells by Western blot analysis; format: cell-based
[3] = target: Insulin-like growth factor 1 receptor (Homo sapiens, UniProt P08069); assay: Inhibition of IGF1R by ELISA
[4] = Inhibition of PDGFR expressed in NIH cells by Western blot analysis; format: cell-based
[5] = Inhibition of VEGFR expressed in PAE cells by Western blot analysis; format: cell-based
Plasma = assay: Ex vivo stability in human plasma assessed as radioactivity at 300 uCi upto 120 hrs; format: ADME, cell-free

Chain of Epidermal growth factor receptor (P00533 whole entry): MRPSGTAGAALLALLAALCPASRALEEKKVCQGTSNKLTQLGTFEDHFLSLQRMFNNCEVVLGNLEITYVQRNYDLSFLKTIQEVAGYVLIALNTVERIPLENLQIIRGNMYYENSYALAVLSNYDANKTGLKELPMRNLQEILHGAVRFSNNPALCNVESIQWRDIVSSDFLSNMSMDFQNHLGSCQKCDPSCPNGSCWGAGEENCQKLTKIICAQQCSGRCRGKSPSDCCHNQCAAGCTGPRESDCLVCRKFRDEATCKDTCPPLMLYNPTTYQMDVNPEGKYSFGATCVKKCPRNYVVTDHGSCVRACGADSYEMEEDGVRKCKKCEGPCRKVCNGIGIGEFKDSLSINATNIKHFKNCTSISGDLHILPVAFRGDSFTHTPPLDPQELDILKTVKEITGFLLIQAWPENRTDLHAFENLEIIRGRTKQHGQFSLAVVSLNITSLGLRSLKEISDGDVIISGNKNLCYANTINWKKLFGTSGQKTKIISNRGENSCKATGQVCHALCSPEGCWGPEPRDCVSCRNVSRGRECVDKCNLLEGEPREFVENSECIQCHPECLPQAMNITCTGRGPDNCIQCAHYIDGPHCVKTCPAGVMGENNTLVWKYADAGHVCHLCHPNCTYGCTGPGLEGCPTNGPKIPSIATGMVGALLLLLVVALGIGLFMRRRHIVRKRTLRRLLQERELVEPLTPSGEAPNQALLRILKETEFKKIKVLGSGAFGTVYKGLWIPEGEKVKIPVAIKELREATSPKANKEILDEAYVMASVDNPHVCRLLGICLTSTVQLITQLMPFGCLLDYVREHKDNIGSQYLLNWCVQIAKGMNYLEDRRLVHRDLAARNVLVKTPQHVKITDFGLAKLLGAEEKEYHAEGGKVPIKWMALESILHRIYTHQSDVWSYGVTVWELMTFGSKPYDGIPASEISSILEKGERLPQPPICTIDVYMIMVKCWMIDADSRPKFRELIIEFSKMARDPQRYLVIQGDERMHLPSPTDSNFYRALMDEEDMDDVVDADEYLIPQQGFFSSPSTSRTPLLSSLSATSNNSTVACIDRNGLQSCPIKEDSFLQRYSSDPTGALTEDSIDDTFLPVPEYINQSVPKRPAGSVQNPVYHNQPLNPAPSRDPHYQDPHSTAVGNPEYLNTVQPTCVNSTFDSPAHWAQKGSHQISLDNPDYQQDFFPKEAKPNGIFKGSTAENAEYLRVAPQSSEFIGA
Chain of Insulin-like growth factor 1 receptor (P08069 31-736 limits assumed): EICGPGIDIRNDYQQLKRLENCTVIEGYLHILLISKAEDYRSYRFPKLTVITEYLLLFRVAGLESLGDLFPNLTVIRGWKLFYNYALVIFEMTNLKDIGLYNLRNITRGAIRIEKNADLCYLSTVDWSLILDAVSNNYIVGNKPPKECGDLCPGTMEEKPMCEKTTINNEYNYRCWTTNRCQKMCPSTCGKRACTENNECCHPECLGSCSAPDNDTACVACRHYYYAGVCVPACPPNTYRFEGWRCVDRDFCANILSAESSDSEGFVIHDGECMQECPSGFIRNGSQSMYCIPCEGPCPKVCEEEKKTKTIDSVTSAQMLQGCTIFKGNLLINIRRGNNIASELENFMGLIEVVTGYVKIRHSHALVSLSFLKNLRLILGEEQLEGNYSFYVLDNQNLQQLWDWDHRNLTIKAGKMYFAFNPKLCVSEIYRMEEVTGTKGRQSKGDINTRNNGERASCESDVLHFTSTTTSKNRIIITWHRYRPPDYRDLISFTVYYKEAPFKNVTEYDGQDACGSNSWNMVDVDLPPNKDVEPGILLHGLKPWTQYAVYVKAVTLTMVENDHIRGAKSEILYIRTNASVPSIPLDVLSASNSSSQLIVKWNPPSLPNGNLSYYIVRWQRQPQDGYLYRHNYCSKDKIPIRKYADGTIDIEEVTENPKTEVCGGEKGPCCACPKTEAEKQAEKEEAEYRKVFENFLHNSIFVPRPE
Chain of Insulin-like growth factor 1 receptor (P08069 741-1367 limits assumed): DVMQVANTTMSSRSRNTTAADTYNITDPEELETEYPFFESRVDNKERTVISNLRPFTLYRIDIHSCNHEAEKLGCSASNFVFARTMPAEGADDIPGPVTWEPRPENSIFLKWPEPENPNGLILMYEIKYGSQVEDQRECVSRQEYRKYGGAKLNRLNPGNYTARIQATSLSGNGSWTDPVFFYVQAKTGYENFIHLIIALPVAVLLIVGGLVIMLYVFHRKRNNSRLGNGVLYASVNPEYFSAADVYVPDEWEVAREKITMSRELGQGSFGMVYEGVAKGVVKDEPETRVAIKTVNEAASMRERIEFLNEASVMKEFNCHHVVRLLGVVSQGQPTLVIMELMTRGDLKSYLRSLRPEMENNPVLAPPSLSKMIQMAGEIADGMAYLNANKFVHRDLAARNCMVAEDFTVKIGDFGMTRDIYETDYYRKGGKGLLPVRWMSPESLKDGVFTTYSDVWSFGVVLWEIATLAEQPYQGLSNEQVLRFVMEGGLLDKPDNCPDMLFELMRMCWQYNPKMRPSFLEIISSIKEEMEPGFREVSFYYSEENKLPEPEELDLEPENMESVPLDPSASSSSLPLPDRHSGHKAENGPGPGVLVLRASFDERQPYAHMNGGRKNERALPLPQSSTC
Chain of Receptor tyrosine-protein kinase erbB-2 (P04626 whole entry): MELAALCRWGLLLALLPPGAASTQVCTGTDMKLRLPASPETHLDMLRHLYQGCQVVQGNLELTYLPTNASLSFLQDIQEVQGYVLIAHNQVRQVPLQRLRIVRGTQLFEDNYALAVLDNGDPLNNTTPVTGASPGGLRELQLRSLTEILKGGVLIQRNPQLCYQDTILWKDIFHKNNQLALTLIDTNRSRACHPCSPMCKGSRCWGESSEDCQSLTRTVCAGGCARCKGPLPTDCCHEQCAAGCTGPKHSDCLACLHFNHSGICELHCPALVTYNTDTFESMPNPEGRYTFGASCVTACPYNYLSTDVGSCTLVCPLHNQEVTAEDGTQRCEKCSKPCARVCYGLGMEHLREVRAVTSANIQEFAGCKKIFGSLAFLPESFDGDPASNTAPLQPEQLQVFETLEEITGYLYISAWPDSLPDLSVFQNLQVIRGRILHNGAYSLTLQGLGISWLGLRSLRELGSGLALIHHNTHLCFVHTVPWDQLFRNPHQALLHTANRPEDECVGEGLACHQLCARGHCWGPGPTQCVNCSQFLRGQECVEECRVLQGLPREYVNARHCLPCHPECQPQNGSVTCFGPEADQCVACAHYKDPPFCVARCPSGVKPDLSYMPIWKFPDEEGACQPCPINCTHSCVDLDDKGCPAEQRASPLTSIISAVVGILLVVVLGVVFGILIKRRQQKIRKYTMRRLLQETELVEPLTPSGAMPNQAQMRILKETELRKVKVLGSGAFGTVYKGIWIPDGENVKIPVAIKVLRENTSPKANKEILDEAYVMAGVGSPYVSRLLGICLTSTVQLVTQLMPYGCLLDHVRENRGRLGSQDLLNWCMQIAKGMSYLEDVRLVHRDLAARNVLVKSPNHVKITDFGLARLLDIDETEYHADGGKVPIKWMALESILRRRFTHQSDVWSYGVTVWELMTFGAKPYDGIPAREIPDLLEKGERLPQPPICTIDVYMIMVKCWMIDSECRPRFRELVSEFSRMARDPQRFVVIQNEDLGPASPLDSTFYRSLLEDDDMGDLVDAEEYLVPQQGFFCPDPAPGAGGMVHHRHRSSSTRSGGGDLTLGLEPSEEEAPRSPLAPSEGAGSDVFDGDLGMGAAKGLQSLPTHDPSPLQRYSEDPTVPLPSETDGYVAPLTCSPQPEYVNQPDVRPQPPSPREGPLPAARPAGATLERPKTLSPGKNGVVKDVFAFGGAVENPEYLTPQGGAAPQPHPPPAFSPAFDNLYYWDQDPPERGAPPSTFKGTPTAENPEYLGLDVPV

SMILES	pIC50 [1]	pIC50 [2]	pIC50 [3]	pIC50 [4]	pIC50 [5]	Stability (Plasma)
COc1cc2nccc(Oc3ccc(NC(=O)Nc4ccccc4F)cc3F)c2cc1OC	< 6.30	< 6.30	< 5.70	8.70	8.40	–
COc1cc2nccc(Oc3ccc(NC(=O)Nc4ccc(F)cc4)cc3F)c2cc1OC	< 6.30	< 6.30	< 5.70	8.70	8.10	–
COc1cc2nccc(Oc3ccc(NC(=O)Nc4ccc(F)cc4F)cc3F)c2cc1OC	< 6.30	< 6.30	< 5.70	8.70	–	–
COc1cc2nccc(Oc3ccc(NC(=O)Nc4ccc([18F])cc4)cc3F)c2cc1OC	–	–	–	–	–	Stable
